Measurements from patent US5145783A, “Glyphosate-tolerant 5-endolpyruvyl-3-phosphoshikimate synthase” (Monsanto Company, priority 1990, dated 1992).
“Also recorded” adds a separate entry of the source.

Key:
[1] = target: T1, glyphosate-tolerant EPSP synthase (gly(101)-ala) of tomato (Solanum lycopersicum, UniProt P10748, G177A); test: EPSP synthase activity assay, extracts of E. coli SR481 harboring pMON9729; assay type: biochemical
T1 construct: ATG translational initiation codon at the site predicted to be the start of the mature enzyme for in vitro expression in E. Coli; initiator methionine (ATG in an engineered NcoI site) (N); made in house; host or cells: E. coli SR481 (aroA mutant) harboring pMON9729, desalted cell extract
T1 sequence (P10748 77-520 G177A): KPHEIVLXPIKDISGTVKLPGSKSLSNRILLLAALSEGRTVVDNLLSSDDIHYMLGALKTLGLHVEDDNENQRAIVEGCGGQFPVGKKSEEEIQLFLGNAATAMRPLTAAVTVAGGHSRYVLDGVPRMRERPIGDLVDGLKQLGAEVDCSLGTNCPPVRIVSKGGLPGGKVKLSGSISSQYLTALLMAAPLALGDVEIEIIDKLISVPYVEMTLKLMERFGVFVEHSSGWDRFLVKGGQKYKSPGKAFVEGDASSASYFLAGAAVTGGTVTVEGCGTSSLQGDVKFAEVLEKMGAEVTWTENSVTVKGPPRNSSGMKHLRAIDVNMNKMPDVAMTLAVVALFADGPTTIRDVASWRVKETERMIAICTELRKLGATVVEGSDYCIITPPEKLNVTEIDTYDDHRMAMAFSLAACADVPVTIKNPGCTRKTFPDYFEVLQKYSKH
Description: E. coli SR481 cells harboring pMON9719 or pMON9729 were grown under conditions which induce the expression of the RecA promoter. The cells were lysed and the extracts were assayed for EPSP synthase activity.
Specifically, the bacterial cell paste was washed twice with 0.9% saline, suspended in buffer (100 mM Tris-HCl, 5 mM dithiothreitol, 1 mM EDTA, 10% glycerol and 1 mM benzamidine HCl) passed twice through the French Pressure Cell at 1000 psi. The cell abstract was separated from the cells by centrifuging at 15,000×gravity for 10 mins. at 5° C. It was desalted using Sephadex G-50 (Pharmacia, Piscataway, N.J.). The desalted extract was assayed for EPSP synthase activity as follows:
To an assay mix (40 μl) containing shikimate-3-phosphate (2 mM), ^14 C-phosphoenolpyruvate (1 mM, 1.2 mCi/mmol), ammonium molybdate (0.1 mM), potassium fluoride (5 mM), in 50 mM HEPES-KOH, pH 7, was added 10 μl of the extract and incubated at 25° C. for 2 mins. […] The radioactivity of the eluent was monitored using a Radiometric Flo-One Beta Instrument. […] The EPSP synthase activity was determined by measurement of the conversion of ^14 C-PEP to ^14 […], both of which are resolved under the above conditions of chromatography. The protein content of the extract was determined by the method of Bradford (Biorad Labs, Calif.). […]

[2] = target: T2, glyphosate-tolerant petunia EPSP synthase (alanine for glycine at position 101) (Petunia hybrida, UniProt P11043, G173A); test: EPSP synthase inhibition, petunia enzyme carrying the alanine for glycine substitution; assay type: biochemical
T2 construct: made in house; host or cells: E. coli (overproducing), extract
T2 sequence (P11043 73-516 G173A): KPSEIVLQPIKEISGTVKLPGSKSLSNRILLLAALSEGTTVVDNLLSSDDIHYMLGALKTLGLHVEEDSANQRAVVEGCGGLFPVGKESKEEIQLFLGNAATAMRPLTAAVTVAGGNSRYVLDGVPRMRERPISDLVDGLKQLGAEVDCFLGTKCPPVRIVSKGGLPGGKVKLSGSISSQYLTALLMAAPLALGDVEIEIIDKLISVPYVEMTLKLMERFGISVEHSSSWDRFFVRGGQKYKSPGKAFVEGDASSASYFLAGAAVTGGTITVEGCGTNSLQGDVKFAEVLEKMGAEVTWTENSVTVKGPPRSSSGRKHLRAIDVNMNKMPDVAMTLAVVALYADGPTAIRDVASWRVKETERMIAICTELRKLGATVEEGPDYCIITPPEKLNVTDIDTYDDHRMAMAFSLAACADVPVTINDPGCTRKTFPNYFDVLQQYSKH
Source text: The EPSP synthase in the extracts was further characterized by titrating the resistance to glyphosate.

[3] = tested on: control petunia leaf disks (pMON505); test: Callus growth of petunia leaf disks on glyphosate media, control vector pMON505; assay type: cell-based
Description: (§1) Leaf disks with diameters of 6 mm (1/4 inch) were taken from surface-sterilized petunia leaves. They were cultivated on MS104 agar medium for 2 days to promote partial cell wall formation at the wound surfaces. They were then submerged in a culture of A. tumefaciens cells containing both pMON546 and GV3111-SE which had been grown overnight in Luria broth at 28° C., and shaken gently. The cells were removed from the bacterial suspension, blotted dry, and incubated upside down on filter paper placed over "nurse" cultures of tobacco cells, as described in Horsch (1980). After 2 or 3 days, the disks were transferred to petri dishes containing MS media with 500 μg/ml carbenicillin and 0., 0.1, 0.25, or 0.5 mM glyphosate (sodium salt), with no nurse cultures.
(§2) Control tissue was created using A. tumefaciens cells containing the helper plasmid pGV3111-SE and a different plant transformation vector, pMON505, which contained a T-DNA region with a NOS/NPTII/NOS kanamycin resistance gene and a NOS selectable marker gene identical to pMON546, but without the CaMV35S/EPSP synthase gene.
(§3) Within 10 days after transfer to the media containing glyphosate, actively growing callus tissue appeared on the periphery of all disks on the control plate containing no glyphosate. […] This confirms that the CaMV35S/EPSP synthase gene conferred glyphosate resistance upon the transformed cells.

[4] = tested on: petunia leaf disks transformed with CaMV35S/EPSP synthase gene (pMON546); test: Callus growth of petunia leaf disks on glyphosate media, transformed with pMON546; assay type: cell-based
Description: as §1, §2, §3

[5] = tested on: wild-type (non-transformed) petunia plants; test: Plant response to glyphosate spraying, control plants; assay type: in vivo; conditions: 0.8 #/acre acid equivalent, isopropylamine salt sprayed
Description: Four individual representative transgenic seedlings were selected, grown and tested in the testing procedure described below, along with four individual non-transformed (wild-type) petunia seedlings.
The plants were grown in a growth medium in a growth chamber at 26° C. with 12 hours of light per day. The plants were fertilized weekly with a soluble fertilizer and watered as needed. The plants were sprayed at a uniform and reproducible delivery rate of herbicide by use of an automated track sprayer. The glyphosate solution used was measured as pounds of glyphosate acid equivalents per acre, mixed as the glyphosate isopropylamine salt, with an ionic surfactant.
Four individual wild-type (non-transformed) petunia plants were selected for use as control plants. Four individual transformed plants containing the pMON546 vector were selected by kanamycin resistance as described in Horsch et al. (1985).
The control plants and the transformed plants were sprayed with the isopropylamine salt of glyphosate at the application level listed in Table 2 below; the experimental results obtained are also summarized in Table 2.

wild type callus = test: Growth of wild type callus on glyphosate; assay type: cell-based, Brassica napus; conditions: 0.5 mM glyphosate
[6] = tested on: MP4 cells (Mitchell diploid petunia); test: MP4 suspension culture in MS media containing glyphosate; assay type: cell-based; conditions: 0.5 mM glyphosate (sodium salt) in MS media, estimated; read-out: cells which survived, share of the starting population
Description: The starting cell line, designated as the MP4 line, was derived from a Mitchell diploid petunia (see e.g., Ausubel 1980). The MP4 cells were suspended in Murashige and Skoog (MS) culture media, (GIBCO, Grand Island, N.Y.) All transfers involved dispensing 10 ml of suspension cultures into 50 ml of fresh media. Cultivation periods until the next transfer ranged from 10 to 14 days, and were based on visual indications that the culture was approaching saturation.
Approximately 10 ml of saturated suspension culture (containing about 5×10^6 cells) were transferred into 50 ml of MS media containing 0.5 mM glyphosate. The sodium salt of glyphosate was used throughout the experiments described herein. The large majority of cells were unable to reproduce in the presence of the glyphosate. The cells which survived (estimated to be less than 1% of the starting population) were cultured in 0.5 mM glyphosate and transferred to fresh media containing glyphosate every 10 to 14 days.

SMILES: O=C(O)CNCP(=O)(O)O [glyphosate, N-phosphonomethylglycine]
- IC50 [1]: 32 mM
- IC50 [2]: 16 mM
- callus growth ([3]; 0.25 mM glyphosate): very little growth of callus
- callus growth ([3]; 0.5 mM glyphosate): no callus growth
- callus growth, control disks versus transformed tissue ([4]; 0.1 mM glyphosate, within 10 days after transfer): little detectable difference
- callus growth ([4]; 0.25 mM glyphosate, transformed tissue): substantial growth
- callus growth ([4]; 0.5 mM glyphosate, transformed disks): a significant number of calli grew
- Visual Appearance [5]: completely dead; also recorded: killed
- effect on callus (wild type callus): kills
- viability at 500 µM [6]: < 1%
